Reference: paper PMC4646422 (ACS chemical biology, 2015)
“And” between values parts separate entries of the source, which are not always exact repeats. Equal values may be shown once. Read-outs that look alike come from different tables or passages of the source.

Legend:
[1] = molecular target: malate dehydrogenase (MDH); experiment: Malate dehydrogenase; format: biochemical; details: for inhibition of MDH (in words): counter-screening enzyme
[2] = molecular target: Trypsin from porcine pancreas (Sus scrofa, UniProt P00761); experiment: Trypsin inhibition assay; format: biochemical; details: IC50 vs trypsin, 50 mM potassium phosphate
Trypsin from porcine pancreas, sequence (P00761 9-231): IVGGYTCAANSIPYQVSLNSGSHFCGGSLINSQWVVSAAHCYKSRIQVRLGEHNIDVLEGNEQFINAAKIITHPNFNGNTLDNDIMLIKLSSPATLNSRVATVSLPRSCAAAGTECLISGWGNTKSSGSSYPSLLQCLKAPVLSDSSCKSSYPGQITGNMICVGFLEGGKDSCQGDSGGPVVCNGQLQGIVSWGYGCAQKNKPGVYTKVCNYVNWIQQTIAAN

[3] = format: physicochemical; details: for radius: DLS, 25 °C, at twice the compound's CAC; for radius / CAC (critical aggregation concentration): ND = not detected to precipitation limit; for CAC (critical aggregation concentration): dynamic light scattering, 50 mM KPi pH 7.0, 1% DMSO; for particle formation observed by DLS: up to solubility limits; for concentration at which the molecule may aggregate: authors' summary in the discussion
[4] = test system: CDK; details: read-out: EC50, CDK; representative literature value; cited from earlier work
[5] = test system: Hsp90; details: read-out: EC50, Hsp90; representative literature value; cited from earlier work
[6] = test system: GLUT4; details: read-out: EC50, GLUT4; representative literature value; cited from earlier work
[7] = test system: GL01; details: read-out: EC50, GL01; representative literature value; cited from earlier work
[8] = molecular target: AmpC β-lactamase (Escherichia coli, UniProt P00811); experiment: biochemical; format: biochemical; details: for inhibition of AmpC β-lactamase (in words): counter-screening enzyme; for IC50: IC50 vs AmpC β-lactamase
AmpC β-lactamase, sequence (P00811 20-377): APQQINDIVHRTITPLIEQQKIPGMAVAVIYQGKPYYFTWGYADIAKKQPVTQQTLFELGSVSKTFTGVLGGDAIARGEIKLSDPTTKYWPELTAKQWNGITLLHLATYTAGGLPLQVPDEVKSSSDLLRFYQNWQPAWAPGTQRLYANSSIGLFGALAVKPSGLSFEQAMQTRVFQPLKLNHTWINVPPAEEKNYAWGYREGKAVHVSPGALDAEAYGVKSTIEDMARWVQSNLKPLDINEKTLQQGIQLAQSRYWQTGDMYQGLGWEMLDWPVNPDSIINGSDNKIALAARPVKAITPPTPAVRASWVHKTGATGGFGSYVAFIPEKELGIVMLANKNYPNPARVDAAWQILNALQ

[9] = test system: hCNT; details: read-out: EC50, hCNT; representative literature value; cited from earlier work
[10] = test system: P-glycoprotein; details: read-out: EC50, P-glycoprotein; representative literature value; cited from earlier work
[11] = test system: CYP3A4; details: read-out: EC50, CYP3A4; representative literature value; cited from earlier work
[12] = test system: OCT2; details: read-out: EC50, OCT2; representative literature value; cited from earlier work
[13] = test system: MATE1; details: read-out: EC50, MATE1; representative literature value; cited from earlier work
[14] = molecular target: T1, HIV-2 protease (Human immunodeficiency virus type 2 subtype A, UniProt P04584); details: read-out: EC50, HIV-2 protease; representative literature value; cited from earlier work
T1 sequence (P04584 514-612 limits assumed): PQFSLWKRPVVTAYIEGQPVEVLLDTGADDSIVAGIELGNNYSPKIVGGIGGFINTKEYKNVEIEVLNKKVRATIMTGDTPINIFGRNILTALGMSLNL

[15] = molecular target: Ca^2+-ATPase; details: read-out: EC50, Ca^2+-ATPase; representative literature value; cited from earlier work
[16] = test system: HIV-1 protease; details: read-out: EC50, HIV-1 protease; representative literature value; cited from earlier work
[17] = molecular target: T1, HIV-2 protease; experiment: HIV-2 protease inhibition assay; details: IC50 vs HIV-2 protease, 50 mM sodium acetate, pH 5.5, 200 mM sodium chloride
[18] = test system: ASICs; details: read-out: EC50, ASICs; representative literature value; cited from earlier work
[19] = test system: ERR; details: read-out: EC50, ERR; representative literature value; cited from earlier work
[20] = test system: PTP1B; details: read-out: EC50, PTP1B; representative literature value; cited from earlier work
[21] = test system: MMP; details: read-out: EC50, MMP; representative literature value; cited from earlier work
[22] = test system: CDK2; details: read-out: EC50, CDK2; representative literature value; cited from earlier work
[23] = test system: trypsin; details: read-out: EC50, trypsin; representative literature value; cited from earlier work
[24] = test system: AMPK; details: read-out: EC50, AMPK; representative literature value; cited from earlier work
[25] = test system: 11 β HSD1; details: read-out: EC50, 11 β HSD1; representative literature value; cited from earlier work
[26] = test system: DYRK1A and CLK1; details: read-out: EC50, DYRK1A and CLK1; representative literature value; cited from earlier work
[27] = read-out: IC50 vs MDH, no detergent, 50 mM potassium phosphate, pH 7.0, ND = not detected to precipitation limit
[28] = read-out: IC50 vs MDH, with detergent, 50 mM potassium phosphate, pH 7.0 + 0.01% (v/v) Triton X-100, ND = not detected to precipitation limit
[29] = with detergent, pH 7.0 + 0.01% (v/v) Triton X-100
[30] = read-out: IC50 vs MDH, with DTT, with 1 mM DTT

O=c1c(O)c(-c2ccc(O)cc2)oc2cc(O)cc(O)c12 [kaempferol]
IC50 [1, 27]: 61 µM | IC50 [1, 28]: > 100 µM | IC50 ([2]; no detergent, pH 7.0): 110 µM | IC50 [2, 29]: > 250 µM | radius [3]: 61 ± 20 nm | CAC (critical aggregation concentration) [3]: 81 ± 26 µM | EC50 [4]: 2.5 to 51 µM

COc1cc(C2Oc3cc([C@H]4Oc5cc(O)cc(O)c5C(=O)[C@@H]4O)ccc3OC2CO)ccc1O (stereo partly shown) [silibinin]
IC50 [1, 27]: 12 µM | IC50 [1, 28]: > 100 µM | radius [3]: 53 ± 16 nm | CAC (critical aggregation concentration) [3]: 0.47 ± 0.15 µM | EC50 [5]: 250 µM | EC50 [6]: 60 µM

Oc1cc(O)c2cc(O)c(-c3cc(O)c(O)c(O)c3)[o+]c2c1 [delphinidin]
IC50 [1, 27]: 27 µM | IC50 [1, 28]: > 100 µM | particle formation observed by DLS [3]: no particles were observed | EC50 [7]: 1.9 µM

O=C(CCc1ccc(O)cc1)c1c(O)cc(O)cc1O[C@@H]1O[C@H](CO)[C@@H](O)[C@H](O)[C@H]1O [phlorizin]
inhibition of AmpC β-lactamase (in words) [8]: no inhibition | inhibition of MDH (in words) [1]: no inhibition | particle formation observed by DLS [3]: no particles were observed | EC50 [9]: 100 to 200 µM

C[C@]12CC[C@H](O)C[C@H]1CC[C@@H]1[C@@H]2CC[C@]2(C)[C@@H](c3ccc(=O)oc3)CC[C@]12O [bufalin]
IC50 [1, 27]: 101 µM | IC50 [1, 28]: > 200 µM | radius [3]: 1317 ± 394 nm | CAC (critical aggregation concentration) [3]: 51 ± 3 µM | EC50 [10]: 100 µM | EC50 [11]: 14.5 µM

COc1cc2c(O)c3c(c(-c4ccc5c(c4)OCO5)c2cc1OC)C(=O)OC3 [diphyllin]
IC50 [1, 27]: 49 µM | IC50 [1, 28]: > 200 µM | radius [3]: 269 ± 49 nm | CAC (critical aggregation concentration) [3]: 40 ± 4.0 µM

COc1ccc2c(c1OC)C(=O)O[C@@H]2[C@H]1c2c(cc3c(c2OC)OCO3)CCN1C [noscapine]
inhibition of AmpC β-lactamase (in words) [8]: no inhibition | inhibition of MDH (in words) [1]: no inhibition | particle formation observed by DLS [3]: no particles were observed | EC50 [12]: 2.6 µM | EC50 [13]: 34.5 µM

COc1cc(/C=C/C(=O)CC(=O)/C=C/c2ccc(O)c(OC)c2)ccc1O [curcumin]
IC50 ([1]; read-out: IC50 vs MDH, no DTT): 9 µM | IC50 [1, 27]: 9 µM | IC50 [1, 30]: 10 µM | IC50 [1, 28]: > 30 µM | radius [3]: 465 ± 30 nm | CAC (critical aggregation concentration) [3]: 17 µM and 17 ± 0.44 µM | EC50 [14]: 250 µM | EC50 [15]: ~3 µM | EC50 [16]: 100 µM | IC50 ([17]; no detergent, 1 mM EDTA and 0.5 mM TCEP): 19 µM | IC50 ([17]; with detergent, 1 mM EDTA and 0.5 mM TCEP + 0.01% (v/v) Triton X-100): > 100 µM

O=c1c(-c2ccc(O)cc2)coc2c([C@@H]3O[C@H](CO)[C@@H](O)[C@H](O)[C@H]3O)c(O)ccc12 [puerarin]
IC50 [1, 27]: 135 µM | IC50 [1, 28]: 156 µM | radius [3]: 78 ± 25 nm | concentration at which the molecule may aggregate [3]: ≥ 100 µM | CAC (critical aggregation concentration) [3]: 135 µM and 135 ± 40 µM | EC50 [18]: 38.4 µM

Oc1ccc([C@H]2COc3cc(O)ccc3C2)cc1 [equol]
concentration at which the molecule may aggregate [3]: ≥ 100 µM | particle formation observed by DLS [3]: no particles were observed | EC50 [19]: 5.8 µM

Oc1ccc2c(c1)OC[C@]1(O)Cc3cc(O)c(O)cc3[C@H]21 [brazilin]
IC50 [1, 27]: 1.6 µM | IC50 [1, 28]: 84 µM | radius [3]: 52 ± 10 nm | CAC (critical aggregation concentration) [3]: 57 ± 7 µM

COc1cc(O)c2c(c1)C(=O)c1cc(C)cc(O)c1C2=O [physcion]
IC50 ([8]; no DTT): 7 µM | IC50 ([8]; with DTT, with 1 mM DTT): 11 µM | IC50 ([1]; read-out: IC50 vs MDH, no DTT): 11 µM | IC50 [1, 27]: 11 µM | IC50 [1, 30]: 8 µM | IC50 [1, 28]: > 20 µM | radius [3]: 320 ± 83 nm | CAC (critical aggregation concentration) [3]: 0.32 ± 0.025 µM | EC50 [20]: 20 µM | EC50 [21]: 26.8 to 45.3 µM

COc1ccc2c(c1OC)CN1CCc3cc4c(cc3[C@@H]1C2)OCO4 [canadine]
inhibition of AmpC β-lactamase (in words) [8]: did not inhibit | inhibition of MDH (in words) [1]: did not inhibit | radius [3]: 52 ± 14 nm | CAC (critical aggregation concentration) [3]: 95 ± 11 µM | particle formation observed by DLS [3]: formed particles | EC50 [22]: > 50 µM

Cc1cc(O)c2c(c1)C(=O)c1cc(O)cc(O)c1C2=O [emodin]
IC50 ([8]; no DTT): 27 µM | IC50 ([8]; with DTT, with 1 mM DTT): 17 µM | IC50 ([1]; read-out: IC50 vs MDH, no DTT): 28 µM | IC50 [1, 27]: 28 µM | IC50 [1, 30]: 18 µM | IC50 [1, 28]: > 100 µM | IC50 ([2]; no detergent, pH 7.0): 49 µM | IC50 [2, 29]: > 500 µM | radius [3]: 231 ± 61 nm | CAC (critical aggregation concentration) [3]: 28 ± 2 µM | EC50 [23]: 50 µM | EC50 [21]: 12.8 to 20.1 µM | EC50 [24]: 0.5 µM | EC50 [25]: 4.2 to 7.2 µM | EC50 [26]: 4.2 to 6.1 µM
